Data as given in PubChem BioAssay (NCI).
Values joined by “and” are separate entries in the source; they are usually repeats but may differ in a detail not shown here. Equal values may be shown once.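 Cells were grown in 96-well plates and exposed to each compound for 48 hours at five concentrations; endpoints were interpolated linearly between bracketing concentrations, or set to the highest concentration if not reached. Here, GI50 denotes the concentration required for 50% inhibition of growth. TGI: total growth inhibition.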

Experiments:
Test in all cases: growth of human tumour cells (NCI), 48 h
[1] = system: M14 melanoma
[2] = system: MDA-MB-435
[3] = system: NCI-H460 lung
[4] = system: OVCAR-3 ovarian
[5] = system: OVCAR-4 ovarian
[6] = system: PC-3 prostate
[7] = system: SK-MEL-5 melanoma
[8] = system: SK-OV-3 ovarian
[9] = system: UACC-62 melanoma
[10] = system: UO-31 renal

Row | SMILES | GI50 [1] [µM] | TGI [1] | GI50 [2] [µM] | TGI [2] | GI50 [3] [µM] | TGI [3] | GI50 [4] | TGI [4] | GI50 [5] [µM] | TGI [5] [µM] | GI50 [6] | TGI [6] [µM] | GI50 [7] [µM] | TGI [7] | GI50 [8] [µM] | TGI [8] | GI50 [9] [µM] | TGI [9] | GI50 [10] [µM] | TGI [10]
1 | COc1cc(CNc2oc(-c3ccccc3)c(-c3ccccc3)c2C#N)cc(CN2CCN(C)CC2)c1O | 1.78 | 3.65 µM | 1.77 | 3.26 µM | 1.89 | 3.55 µM | 1.76 µM | 3.21 µM | 1.86 | 3.99 | 1.87 µM | 4.09 | 1.62 | 3.05 µM | 2.22 | 4.06 µM | 1.77 | 3.47 µM | 1.23 | 2.62 µM
2 | COc1ccc(-c2cc(=O)c3c(O)c(OC)c(OC)c(OC)c3o2)cc1 | – | > 100 µM | – | > 100 µM | – | > 100 µM | – | > 100 µM | – | > 100 | – | > 100 | – | > 100 µM | – | > 100 µM | – | > 100 µM | – | > 100 µM
3 | CC[C@H](C)[C@H](NC(=O)c1cccn1C)C(=O)N(C)[C@H](C[C@@H](OC(C)=O)c1nc(C(=O)N[C@@H](Cc2ccccc2)C[C@H](C)C(=O)OC)cs1)C(C)C | 0.131 | 0.832 µM | 0.0348 | 0.168 µM | 0.123 | > 14.4 µM | 0.0809 µM | 0.272 µM | 0.68 | > 33.3 | 0.141 µM | > 33.3 | 0.103 | 0.736 µM | 0.124 | > 33.3 µM | 0.0569 | > 26 µM | 1.3 | > 33.3 µM
4 | Cc1cc(O)c(-c2ccc([C@@H](C)CN(C)C)cc2)c2c1[nH]c(=O)c1sccc12 | 0.705 | 4.34 µM | 0.981 | 15.2 µM | 0.335 | > 49.1 µM | 0.613 µM | 6.17 µM | 0.769 | 10.6 | 0.667 µM | 18 | 0.805 | 3.98 µM | 0.332 | 3.65 µM | 1.32 | 4.99 µM | 0.287 | 1.88 µM
5 | N#Cc1cccc(C2C3=C(COC3=O)N(CCO)c3cc4c(cc32)OCO4)c1 (stereo not drawn) | 0.806 | > 50 µM | 0.154 | 1.03 µM | 1.83 | > 50 µM | 1.35 µM | > 50 µM | 10.9 | > 50 | 1.62 µM | > 50 | 1.07 | > 50 µM | 2.08 | > 50 µM | 1.66 | > 50 µM | 2.63 | > 50 µM
6 | CC(C)(C)OC(=O)Nc1ccc2c(c1)C(NC(=O)Nc1cccc(C#N)c1)CC(C)(C)O2 (stereo not drawn) | 3.73 | 40.5 µM | 1.44 | 15.2 µM | 3 | > 100 µM | 2.15 µM | > 100 µM | 1.18 | > 100 | 0.785 µM | > 35.3 | 0.463 | 3.15 µM | 8.68 | > 100 µM | 0.834 | 17 µM | 3.36 | > 100 µM
7 | Nc1cccc2c1C(=O)c1cccc(NC(=O)c3ccccc3)c1C2=O | 0.4 | 36.4 µM | 0.0364 | 0.414 µM | 0.371 | > 32.6 µM | 0.254 µM | 1.47 µM | 5.07 | > 100 | 0.374 µM | > 100 | 0.355 | 15 µM | 0.425 | 9.24 µM | 0.221 | 14 µM | 0.474 | > 100 µM
8 | N#Cc1cccc(N2C(=O)C3C4C=CC(C3C2=O)C2C(=O)N(c3cccc(C#N)c3)C(=O)C42)c1 (stereo not drawn) | – | > 63.1 µM | – | > 100 µM | – | > 63.1 µM | – | > 100 µM | – | > 63.1 | – | > 100 | – | > 63.1 µM | – | 34.9 µM | – | > 100 µM | – | 61.8 µM
9 | CS(=O)(=O)N(c1cc(-c2ccc3ncnc(Nc4ccc(F)c(Cl)c4)c3c2)cnc1Cl)S(C)(=O)=O | 1.17 | 11.9 µM | 1.83 | 17.2 µM | 1.76 | 13.5 µM | 0.728 µM | 4.24 µM | 2.33 | 19.4 | 1.1 µM | 7.9 | 0.978 | 2.42 µM | 0.6 | 4.31 µM | 0.49 | 2.93 µM | 0.27 | 2.99 µM
10 | N#CC1=C(N)NC(=O)NC12Nc1ccccc1N2 | > 100 | > 100 µM | > 100 | > 100 µM | > 100 | > 100 µM | > 100 µM | > 100 µM | > 100 | > 100 | > 100 µM | > 100 | > 100 | > 100 µM | > 100 | > 100 µM | > 100 | > 100 µM | – | –
11 | C[C@]12C[C@H](O)[C@H]3[C@@H](CCC4=CC(=O)CC[C@@]43C)[C@@H]1CC[C@@H]2c1csc(-c2ccccc2)n1 | – | > 100 µM | – | > 100 µM | – | > 100 µM | – | > 100 µM | – | > 73.8 | – | 20.3 | – | – | – | > 100 µM | – | > 100 µM | – | > 46.2 µM
12 | COC(C)C(O)(C(=O)OCC1=CCN2CCC(O)C12)C(C)(C)O (stereo not drawn) | – | > 100 µM | – | > 100 µM | – | > 100 µM | – | > 100 µM | – | > 100 | – | > 100 | – | > 100 µM | – | > 100 µM | – | > 100 µM | – | > 100 µM
13 | CC/C(=C/c1ccc(OC)cc1OC)[N+](=O)[O-] | 2.44 | 8.53 µM | 1.97 | 5.7 µM | 2.71 | 7.56 µM | 1.84 µM | 3.38 µM | 4.66 | 17.3 | 3.84 µM | 13.1 | 4.12 | 14 µM | 16.7 | 30.4 µM | 1.73 | 3.96 µM | 1.57 | 3.09 µM
14 | O=C(/C=C/C12c3ccccc3C(c3ccccc31)C1C(=O)NC(=O)C12)c1ccccc1 (stereo not drawn) | 1.78 | 3.68 µM | 2.16 | 5.9 µM | 1.68 | 4.65 µM | 1.65 µM | 3.37 µM | 2.3 | 12.1 | 1.62 µM | 3.45 | 1.72 | 3.1 µM | 2.37 | 5.2 µM | 1.77 | 3.82 µM | 1.53 | 2.88 µM
15 | Cc1cccc2c1[nH]c(=O)c1c3ccccc3cn21 | 12.4 | 30.9 µM | 3.14 | 11.6 µM | 1.89 | – | 4.78 µM | 28.2 µM | 6.73 | > 100 | 3.9 µM | 29.3 | 11.7 | 23.9 µM | 27.5 | > 100 µM | 6.87 | 28.1 µM | 5.66 | > 100 µM
16 | CCC1=C(CC2NCCc3ccccc32)CC2c3cc(OC)c(OC)cc3CCN2C1 (stereo not drawn) | 4.53 | 16 µM and 3.49 µM | 3.51 | 14.2 µM and 2.45 µM | 3.28 | 11.7 µM and 3.57 µM | 3.61 µM | 19 µM and 11.3 µM | 3.87 | – | 3.48 µM | – | 3.39 | 13.1 µM and 2.7 µM | 4.07 | 25.6 µM and 17.1 µM | 13.9 | 27.5 µM and 6.66 µM | 4.73 | 29.7 µM and 3.35 µM
17 | COC(=O)N[C@H]1CCc2c(Cl)c(OC)c(OC)c(OC)c2-c2ccc(SC)c(=O)cc21 | < 0.01 | – | < 0.01 | < 0.01 µM | < 0.01 | 1.05 µM | < 0.01 µM | < 0.01 µM | 0.0813 | > 100 | < 0.01 µM | > 70.3 | < 0.01 | < 0.0127 µM | < 0.01 | > 100 µM | < 0.01 | 20.1 µM | < 0.0215 | 51.7 µM
18 | O=C([O-])CC(=O)[O-].[NH-][C@@H]1CCCC[C@H]1[NH-].[Pt+4] | 16.7 | > 100 µM | 15.5 | > 100 µM | 3.17 | > 100 µM | 24.9 µM | > 100 µM | > 33.9 | > 100 | 37 µM | > 100 | 16.9 | > 100 µM | > 100 | > 100 µM | 20.2 | > 100 µM | 18.9 | > 100 µM
19 | COc1ccc(S(=O)(=O)N(C(C)=O)c2ccccc2/C=C/c2cc[n+]([O-])cc2)cc1 | 0.388 | 8.08 µM | 0.143 | 0.576 µM | 0.412 | > 10 µM | 0.371 µM | 1.57 µM | > 6.79 | > 10 | 0.688 µM | > 10 | 0.703 | > 10 µM | 1.05 | > 10 µM | 0.457 | > 10 µM | 5.02 | > 10 µM
20 | C=C1CCC2C3(C)COC(c4ccccc4Cl)OC3CCC2(C)C1/C=C/C1=CCOC1=O (stereo not drawn) | 89.6 | > 100 µM | 9.89 | > 100 µM | 5.96 | > 100 µM | 26.2 µM | > 100 µM | 4.47 | > 100 | 3.17 µM | > 100 | 3.78 | 21 µM | > 100 | > 100 µM | 11.2 | > 100 µM | 6.95 | > 100 µM
21 | CC(C)(C)OC(=O)N[C@@H](Cc1ccccc1)C(=O)N(Cc1ccccc1)C1(C(=O)NCc2ccccc2)CCN(Cc2ccccc2)CC1 | 2.6 | 44.5 µM | 3.04 | > 100 µM | 3 | 87.6 µM | 3.95 µM | > 100 µM | 3.23 | > 100 | 2.46 µM | > 100 | 1.73 | 3.29 µM | 3 | > 100 µM | 2.54 | 7.88 µM | 2.16 | > 100 µM
22 | CN1CCN(CCCOc2cc(O)c3c(=O)cc(-c4ccccc4)oc3c2)CC1 | – | – | 13.7 | 32.9 µM | 16.7 | 34.5 µM | 20.8 µM | 54.9 µM | 16.3 | 41 | 31.4 µM | > 100 | 10.3 | 23.1 µM | 19.4 | 38.4 µM | 16.3 | 29.9 µM | 16.9 | 47.3 µM
23 | CCn1c2ccccc2c2cc(C(=O)c3ccc(C)c4ccccc34)ccc21 | 0.276 | 1.42 µM | 0.161 | 0.378 µM | 0.356 | > 100 µM | 0.308 µM | 0.938 µM | 3.32 | > 100 | 0.392 µM | > 100 | 0.319 | 1.41 µM | 0.553 | > 100 µM | 0.296 | 3.52 µM | 0.716 | > 100 µM
24 | CNC(=O)c1cncc(/C=C/c2ccccc2Cl)c1 | > 25 | > 25 µM | > 25 | > 25 µM | > 25 | > 25 µM | > 25 µM | > 25 µM | > 25 | > 25 | > 25 µM | > 25 | > 25 | > 25 µM | > 25 | > 25 µM | > 25 | > 25 µM | > 23.6 | > 25 µM
25 | O=C(O)c1ccc(SSc2ccc(C(=O)O)cn2)nc1 | – | > 100 µM | – | > 100 µM | – | > 100 µM | – | > 100 µM | – | > 100 | – | > 100 | – | > 100 µM | – | > 100 µM | – | > 100 µM | – | –
26 | COC(=O)[C@H](Cc1cn(C)cn1)NC(=O)[C@H](Cc1ccccc1)NC(=O)Nc1cc(C(F)(F)F)cc(C(F)(F)F)c1 | 13.5 | 28.5 µM | 15.3 | 29.4 µM | 14.2 | 29.7 µM | 2.25 µM and 3.46 µM | 5.42 µM and 11.1 µM | 13.8 | 28.5 | 9.17 µM and 12.4 µM | 25.8 | 16.2 | 30.7 µM | 19.2 | 33.3 µM | – | – | 16.6 | 30.5 µM
